B1: Sc CD (PZG738): cytosine deaminase from Saccharomyces cerevisiae (FCY1 gene), recombinant his-tagged protein in pET100 (protein, UniProt Q12178 1-158, looked up)
Cytosine deaminase: MVTGGMASKWDQKGMDIAYEEAALGYKEGGVPIGGCLINNKDGSVLGRGHNMRFQKGSATLHGEISTLENCGRLEGKVYKDTTLYTTLSPCDMCTGAIIMYGIPRCVVGENVNFKSKGEKYLQTRGHEVVVVDDERCKKIMKQFIDERPQDWFEDIGE
modifications: His tag
notes: cytosine deaminase from Saccharomyces cerevisiae (FCY1 gene), recombinant his-tagged protein in pET100

How the values were obtained:
HT-29 = assay: XTT cell proliferation assay, untransduced HT-29; type: cell-based; conditions: Homo sapiens; untransduced HT-29, 96-120 hours of drug exposure
Description: (§1) Cancer cells were purchased from the American Type Culture Collection. Cells were cultured in RPMI, E-MEM or D-MEM with 10% (v/v) Australian originated foetal calf serum and 1 ml/l of gentamicin. Cells were grown at 37° C. in a humidified incubator with a gas phase of 5% CO2. The cells were transduced with the retrovirus containing medium mixed with 5 μg/ml of Polybrene, incubated for 48 hours and then cultured continuously for 3 weeks in the presence of 300-400 μg/ml Genetecin® (Life Technologies Inc.).
(§2) Cells were plated at densities range of 1.500-3.500 cells/well in 96-well plates coated with poly-L-lysine (Sigma). 5-FC was added after 24 hours of incubation. Each experiment was performed in four replicates. Cell survival was assayed after 96-120 hours of drug exposure by XTT cell proliferation kit (Roche). The data was corrected for background media-only absorbance where after the 50% cell killing drug concentration (IC50 value) was calculated using SigmaPlot® (SPSS Science, Dyrberg Trading, Denmark).

PANC-1 = assay: XTT cell proliferation assay, untransduced PANC-1; type: cell-based; conditions: Homo sapiens; untransduced PANC-1, 96-120 hours of drug exposure
Description: as §1, §2

[1] = tested on: MCF7 cell line transduced with Db CD gene; assay: XTT cell proliferation assay, MCF7 transduced with D. bruxellensis cytosine deaminase; type: cell-based, human
Text: (§3) ORFs were amplified with Accuzyme DNA polymerase (Bioline) using primers with designed flanking restriction enzyme sites and containing Kozak sequence at 5′ end. D. bruxellensis CD constructs were cloned into the retrovirus vector pLCXSN. The vector is based on pLXSN (Clontech) to which the CMV promoter has been cloned into the polylinker site to form pLCXSN. The constructs obtained was named DbCDCvir (PZG917). pLCXSN alone was used as a control. The plasmids were purified using the Qiagen plasmid kit (QIAGEN) and DNA sequences were verified by DNA sequence determination. HE 293 T packaging cells (ATCC CRL-11268) were cultured at 37° C. in OPTIMEM 1 medium (Life Technologies, Inc.) The constructed retrovirus vectors were transfected into the packaging cells using LipofectAMINE PLUS (Life Technologies, Inc.) according to the protocol provided by the supplier. The medium from the transfected cells was collected 48 hours after transfection, filtered through a 0.45 μm filter, pelleted by ultracentrifugation (50.000×g, 90 minutes at 4° C.) and dissolved in D-MEM.
as §1, §2

[2] = tested on: Dekkera/Brettanomyces strains; assay: Growth of various Dekkera/Brettanomyces strains on plates containing 5-FC; type: cell-based; conditions: all tested Dekkera and Brettanomyces species, after 5 days
Description: (§4) The yeast strains used in this work are: Dekkera bruxellensis (Y872, CBS 1943), D. bruxellensis (Y879, CBS 2499), D. bruxellensis (CBS 4480, CBS 4481), D. anomala (CBS 76, CBS 77, CBS 1938, CBS 1947), Brettanomyces nanus (CBS 1945), B. nanus (CBS 1955, CBS 1956), M. reukauffii (CBS 2266), B. custersianus (CBS 4805), B. naardensis (CBS 6042), S. kluyveri Y057 (NRRL Y-12651), and S. cerevisiae Y051 (NRRL Y-12632). Yeast strains were grown at 25° in YPD medium (1% yeast extract, 2% bacto peptone, 2% glucose) or in defined minimal (SD) medium (1% succinic acid, 0.6% NaOH, 2% glucose, 0.67% yeast nitrogen base without amino acids from Difco). When indicated, (NH4)2SO4 was replaced with 0.1% cytosine as the sole nitrogen source giving N-minimal medium. The growth rate was determined in liquid medium by following the optical density at 600 nm. The E. coli strain TOP10 (Invitrogen) was used for plasmid amplification. Bacteria were grown at […] in Luria-Bertani medium supplemented with 100 mg/l of ampicillin for selection. The E. coli BL21-DE3 (Invitrogen) strain was used for heterologous protein expression.
(§5) In FIG. 2 it can be seen that all the tested Dekkera/Brettanomyces strains are particularly susceptible to 5-FC, as growth is inhibited at 0.1 or at least at 0.36 μM 5.FC. For comparison, S. cerevisiae (FIG. 1) and M. reukauffii (FIG. 2) strains are included.

D. bruxellensis = assay: Growth of D. bruxellensis on plates containing 5-FC; type: cell-based, Dekkera bruxellensis; conditions: after 5 days
Description: as §4
(§6) The majority of yeast can utilize cytosine as sole source of nitrogen by using CD to cleave cytosine to ammonia (a source of nitrogen) and uracil. To test for the ability of Dekkera yeast for growth on cytosine, Y872 was spotted on N-minimal media containing 0.1% cytosine. […]

S. cerevisiae = assay: Growth of S. cerevisiae on plates containing 5-FC; type: cell-based, Saccharomyces cerevisiae
Description: as §4, §6

[3] = tested on: MCF7 cell line transduced with pLCXSN; assay: XTT cell proliferation assay, MCF7 transduced with empty vector pLCXSN; type: cell-based; conditions: Homo sapiens
Text: as §3
Cancer cells were purchased from the American Type Culture Collection. Cells were cultured in RPMI, E-MEM or D-MEM with 10% (v/v) Australian originated foetal calf serum and 1 ml/l of gentamicin. Cells were grown at 37° C. in a humidified incubator with a gas phase of 5% CO2. […]

U87MG = assay: XTT cell proliferation assay, untransduced U87MG; type: cell-based; conditions: Homo sapiens, U-87 MG, 96-120 hours of drug exposure
Description: as §1, §2

Metschnikowia reukauffii = assay: Growth of control strain Metschnikowia reukauffii on plates containing 5-FC; type: cell-based; conditions: 0.1 or 0.36 μM 5-FC, 5 days
Description: as §4, §5

MCF7 = assay: XTT cell proliferation assay, untransduced MCF7; type: cell-based; conditions: Homo sapiens; untransduced MCF7, 96-120 hours of drug exposure
Description: as §1, §2

[4] = type: physicochemical; conditions: storage at 50° C., his-tagged enzyme
Description: Purified and his-tagged CD from D. bruxellensis and S. cerevisiae CD were assayed after different periods of storage at 50° C. and 37° C. (FIGS. 8a and 8b). Indeed, D. bruxellensis CD was extremely stable at 50° C. when compared to S. cerevisiae CD which lost all activity after only 4 minutes. Half life for D. bruxellensis CD at 50° C. was app. 3 hours (FIG. 8a). […] It should be observed that the temperature stability of the proteins without his-tags could be different.

[5] = CD activities in crude extracts of BL21 cells transformed with CD genes; type: biochemical; conditions: cytosine 500 uM, triplicates, mean with standard deviation
Description: Bacteria or cell lines were grown as described, harvested and stored at −80° C. until activity testing. Cells were submitted to brief sonication in extraction buffer (50 mM Tris/HCl pH 7.5, 1 mM DTT, 10% (v/v) glycerol, 1% (v/v) Triton X-100, protease inhibitor cocktail Complete™ from Roche Diagnostics). Cytosine deaminase activities were determined spectrophotometrically by monitoring the absorbance decrease at 286 nm (Δε286=−0.68 mM^−1 cm^−1) resulting from the deamination of cytosine to uracil. Assays were initiated by the addition of CD to 0.5 mM cytosine in 50 mM Tris-HCL at pH 7.5 and 30° C. and followed for 150 sec. One unit of CD was defined to catalyze the formation of 1 μmol of uracil per min. Dual beam recording ZEIS spectrophotometer, thermostated at 30° C., was used for the assays.
To better characterize D. bruxellensis CD over expression of the protein in bacteria was done. In addition to D. bruxellensis CD, homologous genes from S. cerevisiae was also amplified from total genomic DNA and cloned as histidin tagged construct into pET100 bacterial expression vector. The plasmids were transformed into E. coli BL21 strain and protein expression was induced by IPTG for 8 hours. After harvesting, cell extracts were spectrophotometrically measured for cytosine and 5-FC deamination. All yeast CDs tested were functional when expressed in bacteria (Table 2).

[6] = CD activities with purified his-tagged proteins; type: biochemical; conditions: purified his-tagged protein, 37° C., cytosine 500 μM, triplicates, mean with standard deviation
Description: For recombinant protein expression, E. coli cells were grown to a density of A600 nm=0.5-0.6 in LB medium supplemented with 100 μg/ml ampicillin, and the expression was induced with 10 μM IPTG for 8 h at 25° C. The cells were harvested by centrifugation, and the pellet was resuspended in 25 ml ice-cold binding buffer A […] (50 mM sodium phosphate pH 8.0; 300 mM NaCl; 10% glycerol; 25 mM imidazole) containing protease inhibitor cocktail (Complete™-EDTA free from Roche Diagnostics). The cells were homogenized using a French Press, subjected to centrifugation at 12,000×g for 30 minutes (4° C.), filtered through a […] Whatman glass microfiber filter and a […] cellulose acetate filter, and loaded onto a 5 ml Ni^2+-NTA column (Qiagen). […]
Bacteria or cell lines were grown as described, harvested and stored at −80° C. until activity testing. […] Cytosine deaminase activities were determined spectrophotometrically by monitoring the absorbance decrease at 286 nm (Δε286=−0.68 mM^−1 cm^−1) resulting from the deamination of cytosine to uracil. […]
To characterize the substrate specificities of yeast CDs, purified proteins were measured at 37° C. and fixed cytosine concentration and assays was performed as described in Example 1 (Enzyme assays) (Table 3).

| Molecule | IC50 (HT-29) | IC50 (PANC-1) | IC50 ([1]; Homo sapiens, MCF7, MCF7 transduced with D. bruxellensis cytosine deaminase) | IC50 ([1]; MCF7 transduced with D. bruxellensis cytosine deaminase) | sensitivity increase towards 5-FC ([1]; MCF7 with Db CD versus empty vector) | 5-FC concentration at which growth inhibition was observed [2] | 5-FC concentration at which growth inhibition was observed (D. bruxellensis) | 5-FC concentration at which there was no visible growth (D. bruxellensis) | Growth on plates with 5-FC (S. cerevisiae; S. cerevisiae control strain, 0.1 or 0.36 μM 5-FC, 5 days) | 5-FC concentration at which growth was first inhibited (S. cerevisiae; S. cerevisiae, plates, after 5 days) | IC50 [3] | IC50 (U87MG) | Growth on plates with 5-FC (Metschnikowia reukauffii) | IC50 (MCF7) | Time after which all activity was lost [4] | CD activity, Cytosine [5] | CD activity, Cytosine [6] |
| --- | --- | --- | --- | --- | --- | --- | --- | --- | --- | --- | --- | --- | --- | --- | --- | --- | --- |
| Nc1nc(=O)[nH]cc1F [5-FC, 5-fluorocytosine] | 2000 to 5000 µM | 2000 to 5000 µM | 2400 µM | 2440 µM | 4 fold | ≤ 0.36 µM | 0.1 µM | 0.36 µM | not inhibited | 1 µM | 9290 µM | 2000 to 5000 µM | not inhibited | 2000 to 5000 µM | – | – | – |
| B1 | – | – | – | – | – | – | – | – | – | – | – | – | – | – | 4 min | 40.69 ± 0.56 | 888.4 ± 4.8 U/mg/min |

Reference: patent US20090028842A1, “Dekkera/Brettanomyces Cytosine Deaminases And Their Use” (ZGene A/S, priority 2005, published 2009)
